Results reported in EPA's ToxValDB 9.5.
Values joined by “and” are separate entries in the source; they are usually repeats but may differ in a detail not shown here. Equal values may be shown once.

System: Rattus norvegicus
[1] = subchronic, duration: 13 weeks, oral, diet, F, Crl:CD(SD) BR, Blood: Hematocrit (HCT) + Blood: Mean Corpuscular Volume (MCV) + Brain: Brain Weight, Absolute + Kidney: Urea Nitrogen + Liver: Cholesterol…
[2] = subchronic, duration: 13 weeks, oral, diet, F, Crl:CD(SD) BR, Blood: Red Blood Cell (RBC) + Kidney: Kidney Weight, Relative + Liver: Hepatocellular Hypertrophy, Centrilobular + Liver: Liver Weight, …
[3] = subchronic, duration: 13 weeks, oral, diet, F, Sprague-Dawley, Endocrine: Adrenal: Adrenal Gland Weight, Absolute + Endocrine: Adrenal: Adrenal Gland Weight, Relative to Brain + Hepatic: Liver: Liver …
[4] = subchronic, duration: 13 weeks, oral, diet, F, Sprague-Dawley, Hepatic: Liver: Total Bilirubin (TBILI) + Immune: Blood: Monocytes %
[5] = subchronic, duration: 13 weeks, oral, diet, M, Crl:CD(SD) BR, Blood: Calcium (CA), Blood + Blood: Globulin (G), Blood + Brain: Brain Weight, Relative + Kidney: Kidney Weight, Relative + Liver: …
[6] = subchronic, duration: 13 weeks, oral, diet, M, Crl:CD(SD) BR, Blood: Glucose (GLU), Blood + Blood: Hematocrit (HCT) + Kidney: Kidney Weight, Absolute + Kidney: Kidney Weight, Relative to Brain + Kidney…
[7] = subchronic, duration: 13 weeks, oral, diet, M, Sprague-Dawley, Cardiovascular: Heart: Heart, Degeneration/Necrosis + Endocrine: Adrenal: Adrenal Gland Weight, Absolute + Endocrine: Thyroid/Parathyroid: …
[8] = subchronic, duration: 13 weeks, oral, diet, M, Sprague-Dawley, Endocrine: Adrenal: Adrenal Gland Weight, Relative + Endocrine: Adrenal: Adrenal Gland Weight, Relative to Brain + Endocrine: Adrenal: …
[9] = subchronic, duration: 13 weeks, oral, diet, M, Sprague-Dawley, Immune: Blood: Basophils
[10] = reproduction developmental, oral, gavage, F, Wistar, generation: F1, F1: body weight + F1: kidney: absolute kidney weight + F1: kidney: relative kidney weight + F1: liver: absolute liver weight + F1: liver: …
[11] = reproduction developmental, oral, gavage, F, Wistar, generation: P0, P0: body weight + P0: developmental toxicity
[12] = reproduction developmental, oral, gavage, M, Wistar, generation: F1, F1: body weight + F1: paternal toxicity
[13] = reproduction developmental, oral, gavage, M, Wistar, generation: P0, P0: body weight + P0: developmental toxicity

## CN(CCO)S(=O)(=O)C(F)(F)C(F)(F)C(F)(F)C(F)(F)C(F)(F)C(F)(F)C(F)(F)C(F)(F)F [N-Methyl-N-(2-hydroxyethyl)perfluorooctanesulfonamide]
chronic, duration: 14 weeks, oral, diet, M/F, Crl:CD(SD) BR, Eye: Ophthalmology, Unspecified + Whole Body: Clinical Observations
  NEL: 7.8 mg/kg-day and 7.27 mg/kg-day
subchronic, duration: 13 weeks, oral, diet, F, Crl:CD(SD) BR, Adrenal: Adrenal Cortex Histopathology + Adrenal: Adrenal Gland Weight, Absolute + Adrenal: Adrenal Gland Weight, Relative + Adrenal: …
  NEL: 9.6 mg/kg-day and 7.7 mg/kg-day
[1]
  LEL: 9.6 mg/kg-day and 7.7 mg/kg-day
  NEL: 2.88 mg/kg-day and 2.59 mg/kg-day
[2]
  LEL: 2.88 mg/kg-day and 2.59 mg/kg-day
  NEL: 0.288 mg/kg-day and 0.24 mg/kg-day
subchronic, duration: 13 weeks, oral, diet, F, Crl:CD(SD) BR, Brain: Brain Weight, Relative + Whole Body: Body Weight Change
  LEL: 0.288 mg/kg-day and 0.24 mg/kg-day
subchronic, duration: 13 weeks, oral, diet, F, Sprague-Dawley, Cardiovascular: Aorta: Aorta Histopathology + Cardiovascular: Heart: Heart, Degeneration/Necrosis + Endocrine: Adrenal: Adrenal Cortex …
  NOAEL: 0.203 mg/kg-day
[3]
  LOAEL: 6.84 mg/kg-day
  NOAEL: 2.04 mg/kg-day
subchronic, duration: 13 weeks, oral, diet, F, Sprague-Dawley, Endocrine: Adrenal: Adrenal Medulla Histopathology + Endocrine: Thyroid/Parathyroid: Thyroid/Parathyroid Gland Weight, Relative to Brain + …
  NOAEL: 6.84 mg/kg-day
subchronic, duration: 13 weeks, oral, diet, F, Sprague-Dawley, General Toxicity: Whole Body: Body Weight Change + General Toxicity: Whole Body: Body Weight, Absolute + Hematologic: Blood: Inorganic …
  LOAEL: 0.203 mg/kg-day
[4]
  LOAEL: 19.2 mg/kg-day
  NOAEL: 1.92 mg/kg-day
subchronic, duration: 13 weeks, oral, diet, M, Crl:CD(SD) BR, Adrenal: Adrenal Cortex Histopathology + Adrenal: Adrenal Gland Weight, Absolute + Adrenal: Adrenal Gland Weight, Relative + Adrenal: …
  NEL: 6.84 mg/kg-day and 9.6 mg/kg-day
[5]
  LEL: 2.04 mg/kg-day and 2.88 mg/kg-day
  NEL: 0.203 mg/kg-day and 0.288 mg/kg-day
[6]
  LEL: 6.84 mg/kg-day and 9.6 mg/kg-day
  NEL: 2.04 mg/kg-day and 2.88 mg/kg-day
subchronic, duration: 13 weeks, oral, diet, M, Crl:CD(SD) BR, Whole Body: Body Weight Change
  LEL: 0.203 mg/kg-day and 0.288 mg/kg-day
subchronic, duration: 13 weeks, oral, diet, M, Sprague-Dawley, Cardiovascular: Aorta: Aorta Histopathology + Cardiovascular: Heart: Heart, Degeneration/Necrosis + Endocrine: Adrenal: Adrenal Cortex …
  LOAEL: 0.203 mg/kg-day
subchronic, duration: 13 weeks, oral, diet, M, Sprague-Dawley, Cardiovascular: Aorta: Aorta Histopathology + Endocrine: Adrenal: Adrenal Cortex Histopathology + Endocrine: Pituitary: Pituitary Gland …
  NOAEL: 6.84 mg/kg-day
[7]
  LOAEL: 6.84 mg/kg-day
  NOAEL: 2.04 mg/kg-day
[8]
  LOAEL: 2.04 mg/kg-day
  NOAEL: 0.203 mg/kg-day
subchronic, duration: 13 weeks, oral, diet, M, Sprague-Dawley, Hematologic: Blood: Hematocrit (HCT) + Hematologic: Blood: Mean Corpuscular Hemoglobin Concentration (MCHC) + Hepatic: Liver: Aspartate …
  LOAEL: 0.203 mg/kg-day
[9]
  LOAEL: 19.2 mg/kg-day
  NOAEL: 1.92 mg/kg-day

## CC(C)(c1ccc(OP(=O)(Oc2ccccc2)Oc2ccccc2)cc1)c1ccc(OP(=O)(Oc2ccccc2)Oc2ccccc2)cc1 [2,2-Bis[4-[bis(phenoxy)phosphoryloxy]phenyl]propane]
acute, duration: 14 days, oral, gavage, F, Crl:CD(SD), body weight gain + toxicity
  NOEL: 2000 mg/kg-day
developmental, oral, Sprague-Dawley, generation: F1, F1: embryotoxicity
  NOEL: 1000 mg/kg-day
developmental, oral, gavage, Crl:CD(SD), generation: F1, F1: embryotoxicity
  NOEL: 1000 mg/kg-day
Reproduction developmental, oral, F, Sprague-Dawley, generation: P0, P0: maternal toxicity
  NOEL: 1000 mg/kg-day
Reproduction developmental, oral, gavage, Crl:CD(SD), generation: F1, F1: fetotoxicity
  NOEL: 1000 mg/kg-day
Reproduction developmental, oral, gavage, Crl:CD(SD), generation: F1, F1: toxicity
  NOEL: 1000 mg/kg-day
Reproduction developmental, oral, gavage, F, Crl:CD(SD), generation: P0, P0: body weight + P0: maternal toxicity
  NOEL: 1000 mg/kg-day
Reproduction developmental, oral, gavage, F, Crl:CD(SD), generation: P0, P0: body weight gain + P0: maternal toxicity + P0: uterus: gravid uterine weight
  NOEL: 500 mg/kg-day
Reproduction developmental, oral, gavage, F, Crl:CD(SD), generation: P0, P0: body weight gain + P0: ovary: ovary weight + P0: toxicity
  NOEL: 100 mg/kg-day
Reproduction developmental, oral, gavage, F, Crl:CD(SD), generation: P0, P0: body weight gain + P0: toxicity
  NOEL: 1000 mg/kg-day
Reproduction developmental, oral, gavage, F, Crl:CD(SD), generation: P0, P0: body weight gain + P0: uterus: Gravid uterus weight
  NOEL: 1000 mg/kg-day
Reproduction developmental, oral, gavage, F, Crl:CD(SD), generation: P0, P0: toxicity
  NOEL: 1000 mg/kg-day
[10]
  LOEL: 200 mg/kg-day
  NOEL: 100 mg/kg-day
Reproduction developmental, oral, gavage, F, Wistar, generation: F1, F1: toxicity
  NOEL: 1000 mg/kg-day
[11]
  LOEL: 200 mg/kg-day
  NOEL: 100 mg/kg-day
Reproduction developmental, oral, gavage, F, Wistar, generation: P0, P0: maternal toxicity
  NOEL: 1000 mg/kg-day
Reproduction developmental, oral, gavage, F, Wistar, generation: P0, P0: toxicity
  NOEL: 1000 mg/kg-day
Reproduction developmental, oral, gavage, M/F, Crl:CD(SD), generation: F1, F1: body weight + F1: toxicity
  NOEL: 1000 mg/kg-day
Reproduction developmental, oral, gavage, M, Crl:CD(SD), generation: P0, P0: body weight gain + P0: kidney: kidney: absolute weight + P0: spleen: spleen weight + P0: toxicity
  NOEL: 1000 mg/kg-day
[12]
  LOEL: 200 mg/kg-day
  NOEL: 100 mg/kg-day
Reproduction developmental, oral, gavage, M, Wistar, generation: F1, F1: toxicity
  NOEL: 1000 mg/kg-day
[13]
  LOEL: 200 mg/kg-day
  NOEL: 100 mg/kg-day
Reproduction developmental, oral, gavage, M, Wistar, generation: P0, P0: toxicity
  NOEL: 1000 mg/kg-day
Reproduction developmental, oral, gavage, Wistar, generation: F1, F1: developmental toxicity
  NOEL: 1000 mg/kg-day
short-term, duration: 28 days, oral, diet, M, Sprague-Dawley, toxicity
  NOEL: 1860 mg/kg-day
short-term, duration: 28 days, oral, gavage, F, Sprague-Dawley, body weight + toxicity
  NOEL: 1000 mg/kg-day
short-term, duration: 28 days, oral, gavage, F, Sprague-Dawley, liver: absolute liver weight + ovary: ovary weight + toxicity
  NOEL: 1000 mg/kg-day
short-term, duration: 28 days, oral, gavage, F, Sprague-Dawley, toxicity
  NOEL: 1000 mg/kg-day
short-term, duration: 28 days, oral, gavage, M, Sprague-Dawley, body weight + toxicity
  NOEL: 1000 mg/kg-day
short-term, duration: 28 days, oral, gavage, M, Sprague-Dawley, toxicity
  NOEL: 1000 mg/kg-day
short-term, oral, gavage, F, Sprague-Dawley, toxicity
  NOEL: 1000 mg/kg-day
short-term, oral, gavage, M, Sprague-Dawley, toxicity
  NOEL: 1000 mg/kg-day
subchronic, duration: 90 days, oral, gavage, F, Crj:CD, body weight + toxicity
  NOEL: 1000 mg/kg-day
subchronic, duration: 90 days, oral, gavage, F, Sprague-Dawley, body weight + toxicity
  NOEL: 1000 mg/kg-day
subchronic, duration: 90 days, oral, gavage, M, Crj:CD, body weight + toxicity
  NOEL: 1000 mg/kg-day
subchronic, duration: 90 days, oral, gavage, M, Sprague-Dawley, body weight + toxicity
  NOEL: 1000 mg/kg-day
subchronic, oral, gavage, F, Sprague-Dawley, toxicity
  NOEL: 1000 mg/kg-day
subchronic, oral, gavage, M, Sprague-Dawley, toxicity
  NOEL: 1000 mg/kg-day

## O=[N+]([O-])c1ccc(Oc2ccc(Cl)cc2Cl)cc1 [Nitrofen]
chronic, oral, diet, M, Wistar, heart: Heart weight + spleen: Spleen weight
  NOEL: 116 mg/kg-day
chronic, oral, diet, M, Wistar, kidney: Kidney weight + liver: Liver weight + testes: Testes weight
  LOEL: 116 mg/kg-day
chronic, oral, gavage, F, Wistar, heart: Heart weight + kidney: Kidney weight + liver: Liver weight
  NOEL: 127 mg/kg-day
chronic, oral, gavage, F, Wistar, spleen: Spleen weight
  LOEL: 127 mg/kg-day
subchronic, oral, diet, F, Wistar, heart: Heart weight + kidney: Kidney weight
  LOEL: 1280 mg/kg-day
subchronic, oral, diet, F, Wistar, liver: Liver weight
  LOEL: 10 mg/kg-day
subchronic, oral, diet, F, Wistar, spleen: Spleen weight
  NOEL: 1280 mg/kg-day
subchronic, oral, diet, M, Sprague-Dawley, Albumin + Cholesterol + Globulin + Glucose + Terminal body weight + Total protein
  LOEL: 186 mg/kg-day
subchronic, oral, diet, M, Sprague-Dawley, liver: Relative liver weight + Relative kidney weight + testes: Relative Testes weight
  LOEL: 37 mg/kg-day
subchronic, oral, diet, M, Wistar, heart: Heart weight + spleen: Spleen weight
  LOEL: 1150 mg/kg-day
subchronic, oral, diet, M, Wistar, kidney: Kidney Weight + testes: Testes weight
  LOEL: 230 mg/kg-day
subchronic, oral, diet, M, Wistar, liver: Liver weight
  LOEL: 46 mg/kg-day

## FC(F)(F)N1C(F)(F)C(F)(F)OC(F)(F)C1(F)F [Perfluoro(N-methylmorpholine)]
subchronic, duration: 13 weeks, inhalation, M/F, Sprague-Dawley, Blood: Hematology, Unspecified + Eye: Ophthalmology, Unspecified + Multi-organ: Clinical Chemistry, Unspecified + Multi-organ: …
  NEL: 607000 mg/m3
subchronic, duration: 30 days, oral, gavage, M/F, Crl:CD(SD) BR, Blood: Hematology, Unspecified + Blood: Red Cell Morphology + Multi-organ: Clinical Chemistry, Unspecified + Multi-organ: Histopathology, …
  NEL: 2000 mg/kg-day
